Test results from paper PMC8842224 (Journal of Medicinal Chemistry, 2022).
Read-outs that look alike come from different tables or passages of the source.

Key:
human A1AR = molecular target: T1, human A1AR (Homo sapiens, UniProt P30542); conditions: for Exp absolute binding affinity (ΔGbind): experimental, A1AR
T1 sequence (P30542 1-326): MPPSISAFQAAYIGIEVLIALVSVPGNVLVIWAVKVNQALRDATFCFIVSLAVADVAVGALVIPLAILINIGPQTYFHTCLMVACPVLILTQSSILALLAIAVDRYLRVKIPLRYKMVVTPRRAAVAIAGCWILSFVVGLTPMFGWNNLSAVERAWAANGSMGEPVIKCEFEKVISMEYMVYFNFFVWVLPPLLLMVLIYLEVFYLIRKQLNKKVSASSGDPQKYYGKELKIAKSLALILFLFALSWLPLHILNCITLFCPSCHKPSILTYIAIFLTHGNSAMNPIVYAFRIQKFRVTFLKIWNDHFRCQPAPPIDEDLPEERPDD

human A2AAR = human A2AAR (Homo sapiens, UniProt P29274)
Chain of human A2AAR (P29274 whole entry): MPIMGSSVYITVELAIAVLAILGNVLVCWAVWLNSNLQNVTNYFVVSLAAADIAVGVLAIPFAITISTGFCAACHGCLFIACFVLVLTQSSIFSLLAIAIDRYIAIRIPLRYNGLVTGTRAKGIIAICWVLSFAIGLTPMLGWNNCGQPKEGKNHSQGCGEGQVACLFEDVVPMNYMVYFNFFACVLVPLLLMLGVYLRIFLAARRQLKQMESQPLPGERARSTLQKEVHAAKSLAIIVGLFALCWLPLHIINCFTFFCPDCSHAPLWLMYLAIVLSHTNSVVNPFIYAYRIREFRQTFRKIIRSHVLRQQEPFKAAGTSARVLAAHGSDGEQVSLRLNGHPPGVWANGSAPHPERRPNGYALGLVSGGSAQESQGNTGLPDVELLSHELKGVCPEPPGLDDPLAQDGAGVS

human A2BAR = molecular target: T2, human A2BAR (Homo sapiens, UniProt P29275); conditions: read-out: hA2B Ki; displacement of specific [3H]DPCPX binding, human HEK-293 cells, ± SEM, n = 3
T2 sequence (P29275 1-332): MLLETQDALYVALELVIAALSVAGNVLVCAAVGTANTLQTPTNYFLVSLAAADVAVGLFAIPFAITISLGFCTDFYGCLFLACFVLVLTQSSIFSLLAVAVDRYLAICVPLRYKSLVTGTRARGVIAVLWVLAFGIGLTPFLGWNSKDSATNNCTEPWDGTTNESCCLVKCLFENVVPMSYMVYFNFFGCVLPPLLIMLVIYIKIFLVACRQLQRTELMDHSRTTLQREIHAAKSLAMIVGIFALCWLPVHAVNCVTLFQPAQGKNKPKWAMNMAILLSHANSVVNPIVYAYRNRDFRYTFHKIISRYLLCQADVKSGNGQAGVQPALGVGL

[1] = read-out: hA1 Ki, displacement of specific [3H]DPCPX binding, human CHO cells, ± SEM, n = 3
[2] = read-out: hA2A Ki, displacement of specific [3H]ZM241385 binding, human HeLa cells, ± SEM, n = 3
[3] = read-out: ki_a2a, supplementary csv, unit inferred

N#Cc1c(-c2ccccc2)nc(N)nc1-c1cccs1 [18y]
Ki (human A1AR; [1]): 17.3 ± 4.4 nM | Ki (human A2AAR; [2]): 24.9 ± 4.6 nM | Ki (human A2BAR): 40.6 ± 3.7 nM

N#Cc1c(-c2ccccc2)nc(N)nc1-c1ccoc1 [18z]
Ki (human A1AR; [1]): 18.7 ± 3.4 nM | Ki (human A2AAR; [2]): 52.1 ± 5.1 nM

CNc1nc(-c2ccccc2)c(C#N)c(-c2ccccc2)n1 [19a]
Exp relative binding affinity (ΔΔGbind) (human A1AR; Lig 2 relative to Lig 1 = 19ad): -0.66 kcal/mol | Exp absolute binding affinity (ΔGbind) (human A1AR): -10.96 kcal/mol | Ki (human A1AR; [1]): 9.14 ± 2.21 nM | Ki (human A2AAR; [2]): 711 ± 43 nM

CNc1nc(-c2ccccc2)c(C#N)c(-c2ccc(OC)cc2)n1 [19ab]
Exp absolute binding affinity (ΔGbind) (human A1AR): -9.87 kcal/mol | Ki (human A1AR; [1]): 57.5 ± 2.7 nM

COc1ccc(-c2nc(Nc3ccccc3)nc(-c3ccccc3)c2C#N)cc1 [19ac]
Ki (human A2AAR; [2]): 51.4 ± 3.7 nM | Ki (human A2BAR): 186 ± 15 nM

CNc1nc(-c2ccccc2)c(C#N)c(-c2ccc(C)cc2)n1 [19ad]
Exp absolute binding affinity (ΔGbind) (human A1AR): -10.30 kcal/mol | Ki (human A1AR; [1]): 28 ± 9.3 nM | Ki (human A2BAR): 474 ± 32 nM

Cc1ccc(-c2nc(Nc3ccccc3)nc(-c3ccccc3)c2C#N)cc1 [19ae]
Ki (human A1AR; [1]): 37.9 ± 5.7 nM | Ki (human A2AAR; [2]): 157 ± 16 nM | Ki (human A2AAR; [3]): 158 nM

CCNc1nc(-c2ccccc2)c(C#N)c(-c2cc(Cl)cc(Cl)c2)n1 [19ak]
Ki (human A1AR; [1]): 135 ± 20 nM | Ki (human A1AR; read-out: ki_a1, supplementary csv, unit inferred): 136 nM

CNc1nc(-c2ccccc2)c(C#N)c(-c2cc(OC)cc(OC)c2)n1 [19am]
Exp relative binding affinity (ΔΔGbind) (human A1AR; Lig 2 relative to Lig 1 = 19a): 0,11 kcal/mol | Exp relative binding affinity (ΔΔGbind) (human A1AR; Lig 2 relative to Lig 1 = 19ab): -0.98 kcal/mol | Exp absolute binding affinity (ΔGbind) (human A1AR): -10.85 kcal/mol | Ki (human A1AR; [1]): 11 ± 0.8 nM | Ki (human A2AAR; [2]): 11.5 ± 4.7 nM | Ki (human A2BAR): 60 ± 5.1 nM

COc1cc(OC)cc(-c2nc(Nc3ccccc3)nc(-c3ccccc3)c2C#N)c1 [19an]
Ki (human A2AAR; [2]): 17.3 ± 1.9 nM | Ki (human A2BAR): 64 ± 9.6 nM

CCNc1nc(-c2ccccc2)c(C#N)c(-c2ccc3c(c2)OCO3)n1 [19ap]
Ki (human A1AR; [1]): 6.7 ± 0.67 nM | Ki (human A2AAR; [2]): 894 ± 42 nM | Ki (human A2AAR; [3]): 895 nM | Ki (human A2BAR): 217 ± 18 nM

CNc1nc(-c2ccccc2)c(C#N)c(-c2cc(OC)c(OC)c(OC)c2)n1 [19ar]
Ki (human A1AR; [1]): 11.7 ± 3.1 nM | Ki (human A2AAR; [2]): 3.63 ± 0.88 nM

COc1cc(-c2nc(Nc3ccccc3)nc(-c3ccccc3)c2C#N)cc(OC)c1OC [19as]
Ki (human A1AR; [1]): 76.5 ± 9.1 nM | Ki (human A2AAR; [2]): 15.8 ± 3.7 nM

CNc1nc(-c2ccccc2)c(C#N)c(-c2ccco2)n1 [19at]
Exp relative binding affinity (ΔΔGbind) (human A1AR; Lig 2 relative to Lig 1 = 19a): -0.19 kcal/mol | Exp relative binding affinity (ΔΔGbind) (human A1AR; Lig 2 relative to Lig 1 = 19ax): -4.33 kcal/mol | Exp absolute binding affinity (ΔGbind) (human A1AR): -11.15 kcal/mol | Ki (human A1AR; [1]): 6.66 ± 2.4 nM | Ki (human A2AAR; [2]): 401 ± 25 nM | Ki (human A2AAR; [3]): 402 nM

N#Cc1c(-c2ccccc2)nc(Nc2ccccc2)nc1-c1cccs1 [19aw]
Ki (human A1AR; [1]): 42.3 ± 4.6 nM | Ki (human A2AAR; [2]): 330 ± 27 nM

CNc1nc(-c2ccccc2)c(C#N)c(-c2ccoc2)n1 [19ax]
Exp absolute binding affinity (ΔGbind) (human A1AR): -6.82 kcal/mol

N#Cc1c(-c2ccccc2)nc(Nc2ccccc2)nc1-c1ccoc1 [19ay]
Ki (human A2AAR; [2]): 368 nM

CCNc1nc(-c2ccccc2)c(C#N)c(-c2ccccc2)n1 [19b]
Ki (human A1AR; [1]): 5.82 ± 1.16 nM | Ki (human A2AAR; [2]): 357 ± 21 nM

N#Cc1c(-c2ccccc2)nc(Nc2ccccc2)nc1-c1ccsc1 [19ba]
Ki (human A2AAR; [2]): 102 ± 27 nM

CNc1nc(-c2ccccc2)c(C#N)c(-c2ccncc2)n1 [19bb]
Exp relative binding affinity (ΔΔGbind) (human A1AR; Lig 2 relative to Lig 1 = 19a): 1.08 kcal/mol | Exp absolute binding affinity (ΔGbind) (human A1AR): -9.88 kcal/mol | Ki (human A1AR; [1]): 56.9 ± 6.7 nM

N#Cc1c(-c2ccccc2)nc(Nc2ccccc2)nc1-c1cccnc1 [19bf]
Ki (human A2AAR; [2]): 27.1 ± 5.7 nM | Ki (human A2BAR): 29.4 ± 4 nM

N#Cc1c(-c2ccccc2)nc(Nc2ccccc2)nc1-c1ccccc1 [19c]
Ki (human A1AR; [1]): 45.6 ± 6.7 nM | Ki (human A2AAR; [2]): 55.1 ± 4.3 nM

CNc1nc(-c2ccccc2)c(C#N)c(-c2ccccc2F)n1 [19d]
Exp relative binding affinity (ΔΔGbind) (human A1AR; Lig 2 relative to Lig 1 = 19a): 0.69 kcal/mol | Exp absolute binding affinity (ΔGbind) (human A1AR): -10.27 kcal/mol | Ki (human A1AR; [1]): 29.5 ± 2.3 nM | Ki (human A2BAR): 47.8 ± 3.8 nM

CNc1nc(-c2ccccc2)c(C#N)c(-c2cccc(F)c2)n1 [19j]
Exp relative binding affinity (ΔΔGbind) (human A1AR; Lig 2 relative to Lig 1 = 19a): 0.67 kcal/mol | Exp relative binding affinity (ΔΔGbind) (human A1AR; Lig 2 relative to Lig 1 = 19s): 1.34 kcal/mol | Exp relative binding affinity (ΔΔGbind) (human A1AR; Lig 2 relative to Lig 1 = 19v): 0.12 kcal/mol | Exp absolute binding affinity (ΔGbind) (human A1AR): -10.29 kcal/mol | Ki (human A1AR; [1]): 28.5 ± 2.7 nM | Ki (human A2BAR): 358 ± 27 nM

CCNc1nc(-c2ccccc2)c(C#N)c(-c2cccc(Cl)c2)n1 [19m]
Ki (human A1AR; [1]): 5.1 ± 1.8 nM | Ki (human A2AAR; [2]): 295 ± 27 nM

N#Cc1c(-c2ccccc2)nc(Nc2ccccc2)nc1-c1cccc(Cl)c1 [19n]
Ki (human A2AAR; [2]): 46.3 ± 2.5 nM

CNc1nc(-c2ccccc2)c(C#N)c(-c2cccc(O)c2)n1 [19o]
Ki (human A1AR; [1]): 2.48 ± 0.71 nM | Ki (human A2AAR; [2]): 105 ± 8 nM

CNc1nc(-c2ccccc2)c(C#N)c(-c2cccc(OC)c2)n1 [19q]
Ki (human A1AR; [1]): 13.2 ± 4.1 nM | Ki (human A2AAR; [2]): 82.6 ± 4.9 nM

COc1cccc(-c2nc(Nc3ccccc3)nc(-c3ccccc3)c2C#N)c1 [19r]
Ki (human A1AR; [1]): 95.5 ± 11.7 nM | Ki (human A2AAR; [2]): 133 ± 11 nM

N#Cc1cccc(-c2nc(Nc3ccccc3)nc(-c3ccccc3)c2C#N)c1 [19u]
Ki (human A1AR; [1]): 18.2 ± 3.1 nM | Ki (human A2BAR): 16.4 ± 2.2 nM

N#Cc1c(-c2ccccc2)nc(Nc2ccccc2)nc1-c1ccc(F)cc1 [19w]
Ki (human A1AR; [1]): 36.3 ± 4.1 nM | Ki (human A2BAR): 51.7 ± 3.1 nM
